System: Pyricularia oryzae
Test: microbe, parasite or virus in culture
Format: cell-based
Settings: 168 h, read-out: control compared to the untreated check

COc1cccc(S(C)(=O)=Nc2ccc(-c3noc(C(F)(F)F)n3)cc2)c1 (centres unmarked) [Compound 106, (3-methoxyphenyl)(methyl)((4-(5-(trifluoromethyl)-1,2,4-oxadiazol-3-yl)phenyl)imino)-λ^6-sulfanone] was tested. Which inhibition of growth at 300 ppm did it give?
The inhibition of growth at 300 ppm was greater than 70%.

How did the inhibition of growth at 300 ppm turn out when Cc1cccc(S(C)(=O)=Nc2cccc(-c3noc(C(F)(F)F)n3)c2)c1 (centres unmarked) [Compound 114, methyl(m-tolyl)((3-(5-(trifluoromethyl)-1,2,4-oxadiazol-3-yl)phenyl)imino)-λ^6-sulfanone] was run?
Its inhibition of growth at 300 ppm is greater than 70%.

How did the inhibition of growth at 300 ppm turn out when CS(=O)(=Nc1cccc(-c2noc(C(F)(F)F)n2)c1)c1ccccc1 (centres unmarked) [Compound 122, methyl(phenyl)((3-(5-(trifluoromethyl)-1,2,4-oxadiazol-3-yl)phenyl)imino)-λ^6-sulfanone] was run?
Its inhibition of growth at 300 ppm is greater than 70%.

For CS(=O)(=Nc1ccc(-c2noc(C(F)(F)F)n2)nc1)c1ccc(C(F)(F)F)cc1 (centres unmarked) [Compound 124, methyl((6-(5-(trifluoromethyl)-1,2,4-oxadiazol-3-yl)pyridin-3-yl)imino)(4-(trifluoromethyl)phenyl)-λ^6-sulfanone], which inhibition of growth at 300 ppm is on record?
Its inhibition of growth at 300 ppm is greater than 70%.

How did the inhibition of growth at 300 ppm turn out when COc1cccc(S(C)(=O)=Nc2ccc(-c3noc(C(F)(F)F)n3)nc2)c1 (centres unmarked) [Compound 127, (3-methoxyphenyl)(methyl)((6-(5-(trifluoromethyl)-1,2,4-oxadiazol-3-yl)pyridin-3-yl)imino)-λ^6-sulfanone] was run?
The inhibition of growth at 300 ppm was greater than 70%.

Cc1ccc(S(C)(=O)=Nc2ccc(-c3noc(C(F)(F)F)n3)cc2)cc1 (centres unmarked) [Compound 130, methyl(p-tolyl)((4-(5-(trifluoromethyl)-1,2,4-oxadiazol-3-yl)phenyl)imino)-λ^6-sulfanone] was tested. Which inhibition of growth at 300 ppm did it give?
Its inhibition of growth at 300 ppm is greater than 70%.

For CS(=O)(=NCc1cccc(-c2noc(C(F)(F)F)n2)c1)c1ccc(F)c(F)c1 (centres unmarked) [Compound 141, (3,4-difluorophenyl)(methyl)((3-(5-(trifluoromethyl)-1,2,4-oxadiazol-3-yl)benzyl)imino)-sulfanone], which inhibition of growth at 300 ppm is on record?
Its inhibition of growth at 300 ppm is greater than 70%.

With CS(=O)(=NCc1cccc(-c2noc(C(F)(F)F)n2)c1)c1ccc(Cl)cc1 (centres unmarked) [Compound 143, (4-chlorophenyl)(methyl)((3-(5-(trifluoromethyl)-1,2,4-oxadiazol-3-yl)benzyl)imino)-λ^6-sulfanone] as the compound, how does the inhibition of growth at 300 ppm read?
Its inhibition of growth at 300 ppm is greater than 70%.

Which inhibition of growth at 300 ppm does the source give for CS(=O)(=NCc1cccc(-c2noc(C(F)(F)F)n2)c1)c1nccs1 (centres unmarked) [Compound 144, methyl(thiazol-2-yl)((3-(5-(trifluoromethyl)-1,2,4-oxadiazol-3-yl)benzyl)imino)-λ^6-sulfanone] here?
Its inhibition of growth at 300 ppm is greater than 70%.

Which inhibition of growth at 300 ppm does the source give for CS(=O)(=NCc1cccc(-c2noc(C(F)(F)F)n2)c1)c1ccc(F)cc1 (centres unmarked) [Compound 145, (4-fluorophenyl)(methyl)((3-(5-(trifluoromethyl)-1,2,4-oxadiazol-3-yl)benzyl)imino)-λ^6-sulfanone] here?
The inhibition of growth at 300 ppm was greater than 70%.

CS(=O)(=NCc1cccc(-c2noc(C(F)(F)F)n2)c1)c1cc(F)ccc1Br (centres unmarked) [Compound 146, (2-bromo-5-fluorophenyl)(methyl)((3-(5-(trifluoromethyl)-1,2,4-oxadiazol-3-yl)benzyl)imino)-λ^6-sulfanone] was tested. Which inhibition of growth at 300 ppm did it give?
Its inhibition of growth at 300 ppm is greater than 70%.

With CS(=O)(=NCc1cccc(-c2noc(C(F)(F)F)n2)c1)c1ccc(Br)cc1F (centres unmarked) [Compound 147, (4-bromo-2-fluorophenyl)(methyl)((3-(5-(trifluoromethyl)-1,2,4-oxadiazol-3-yl)benzyl)imino)-λ^6-sulfanone] as the compound, how does the inhibition of growth at 300 ppm read?
Its inhibition of growth at 300 ppm is greater than 70%.

For O=S1(=NCc2cccc(-c3noc(C(F)(F)F)n3)c2)CCOCC1 [Compound 149, 4-((3-(5-(trifluoromethyl)-1,2,4-oxadiazol-3-yl)benzyl)imino)-1,4λ^6-oxathiane 4-oxide], which inhibition of growth at 300 ppm is on record?
Its inhibition of growth at 300 ppm is greater than 70%.

CC(C)S(=O)(=NCc1ccc(-c2noc(C(F)(F)F)n2)cc1)c1ccccc1 (centres unmarked) [Compound 151, isopropyl(phenyl)((4-(5-(trifluoromethyl)-1,2,4-oxadiazol-3-yl)benzyl)imino)-λ^6-sulfanone] was tested. Which inhibition of growth at 300 ppm did it give?
The inhibition of growth at 300 ppm was greater than 70%.

— patent publication US11286242B2 (priority 2018, dated 2022)
